Series [1] in a line: Cytotoxicity against human Huh-7 cells transfected with HCV subgenomic replicon for NS5B polymerase assessed as reduction in cell viability. Format: toxicity, cell-based.
Series [2] concerns Hepatitis C virus. Briefly: Antiviral activity against Hepatitis C virus subtype 1b infected in Huh-7 cells transfected with HCV subgenomic replicon for NS5B polymerase assessed as inhibition of viral replication measured upto 96 hrs by luciferase reporter gene assay. The series is classed as functional, organism-based, Hepacivirus hominis. As to conditions: for IC50: Huh-7, 96 h; for IC90: Huh-7, time <= 96 hrs.

The subject of series [3] is Hepatitis C virus. Briefly: Antiviral activity against Hepatitis C virus subtype 1b infected in Huh-7 cells transfected with HCV subgenomic replicon for NS5B polymerase assessed as inhibition of viral replication measured upto 96 hrs in presence of 40% of human serum by luciferase reporter gene assay. The series is classed as functional, organism-based, Hepacivirus hominis. As to conditions: Huh-7, 96 h. For orientation: Replicon systems follow genome replication, usually without infectious particles.

Series [4] can be described thus: Cmax in Sprague-Dawley rat at 3 mg/kg,po and measured after 72 hrs by LC/MS/MS analysis. As to conditions: in vivo. Set-up: time 72 hrs, dose 3 mg/kg, route po. The series is classed as ADME, organism-based.
Series [5] in a line: AUC (0 to infinity) in Sprague-Dawley rat at 3 mg/kg,po and measured after 72 hrs by LC/MS/MS analysis. The series is classed as ADME, organism-based. To be noted: in vivo. On the set-up: time 72 hrs, dose 3 mg/kg, route po.
Series [6] is described as follows: Unbound clearance in Sprague-Dawley rat at 1 mg/kg,iv and measured after 72 hrs by LC/MS/MS analysis. The series is classed as ADME, organism-based. To be noted: in vivo.
Series [7] is described as follows: Protein binding in rat plasma at 1 uM incubated for 6 hrs by LC-MS/MS based rapid equilibrium dialysis method. The series is classed as ADME, cell-free. As to conditions: read-out: PPB (converted). For orientation: In equilibrium dialysis only unbound substance equilibrates across the membrane.
Series [8] can be described thus: Unbound AUC (0 to infinity) in Sprague-Dawley rat at 3 mg/kg,po and measured after 72 hrs by LC/MS/MS analysis. As to conditions: in vivo. The series is classed as ADME, organism-based.
The nature of series [9]: Oral bioavailability in Sprague-Dawley rat at 3 mg/kg and measured after 72 hrs by LC/MS/MS analysis. The series is classed as ADME, organism-based. As to conditions: in vivo.
Series [10] in a line: AUC (0 to infinity) in Sprague-Dawley rat at 1 mg/kg,iv and measured after 72 hrs by LC/MS/MS analysis. The series is classed as ADME, organism-based. Set-up: time 72 hrs, dose 1 mg/kg, route iv. To be noted: in vivo, 72 h.
Series [11] is described as follows: Half life in Sprague-Dawley rat at 1 mg/kg,iv and measured after 72 hrs by LC/MS/MS analysis. Format: ADME, organism-based. As to conditions: in vivo.
The nature of series [12]: Unbound AUC (0 to infinity) in Sprague-Dawley rat at 1 mg/kg,iv and measured after 72 hrs by LC/MS/MS analysis. Format: ADME, organism-based. To be noted: in vivo.
Series [13] is described as follows: Volume of distribution at steady state in Sprague-Dawley rat at 1 mg/kg,iv and measured after 72 hrs by LC/MS/MS analysis. To be noted: in vivo, read-out: Vdss. Format: ADME, organism-based.

As for `C[C@H](C(=O)N(C)C)N(c1cc(C#CC(C)(C)C)sc1C(=O)O)C(=O)[C@H]1CC[C@H](C)CC1`, in series [1], the CC50 (as a rule, the concentration giving 50% cytotoxicity) is more than 20 µM. In the series with Hepatitis C virus [2], the IC50 (commonly the concentration that inhibits the measured activity by half) stood at 110 nM and the IC90 (as a rule, the concentration at which the effect reaches the 90% level) is 610 nM. For the same compound, in the series with Hepatitis C virus [3], the IC50 is 1320 nM.
Turning to `C[C@@H](C(=O)N(C)C)N(c1cc(C#CC(C)(C)C)sc1C(=O)O)C(=O)[C@H]1CC[C@H](C)CC1`, in series [1], the CC50 was more than 20 µM. For the same compound, the IC50 was 5 nM with Hepatitis C virus [2] and 49 nM in the series with Hepatitis C virus [3]. For the same compound, the IC90 in the series with Hepatitis C virus [2] amounted to 24 nM.
For `CC(C)(C)C#Cc1cc(N(CC(=O)N2CCOCC2)C(=O)[C@H]2CC[C@H](C)CC2)c(C(=O)O)s1`, in that order: more than 20 µM, 23 nM, 340 nM and 100 nM.
With `CN1CC[C@@H](N(c2cc(C#CC(C)(C)C)sc2C(=O)O)C(=O)[C@H]2CC[C@H](C)CC2)C1=O`, the half-maximal cytotoxic concentration (CC50) in series [1] is more than 20 µM. For the same compound, the peak level in [4] (Cmax) was 1310 ng/mL. Further, the AUC(0-inf) – broadly, total exposure, with the tail of the curve extrapolated – in series [5] came to 3320 ng·h/mL. In series [6], this compound displayed a CL free of 11300 mL/min/kg. Moreover, the fraction unbound at 6 h, 1 µM in [7] was 0.002. The fAUC in series [8] was 6.64 ng·h/mL; in [12], 3.48 ng·h/mL. For the same compound, the IC50 amounted to 16 nM in the series with Hepatitis C virus [2] and 140 nM with Hepatitis C virus [3]. In addition, the concentration for an effect of 90% (IC90) in the series with Hepatitis C virus [2] was determined as 96 nM. Also, the bioavailability (commonly dose-corrected exposure relative to a reference, in per cent) in series [9] was 64%. Moreover, the AUC (as a rule, concentration integrated over time) in series [10] is 1.74 µg·h/mL. Further, the half-life (commonly the time in which the quantity being followed falls by half) in [11] was 164 min. The Vd in series [13] amounted to 1.93 L/kg.

(Values after ChEMBL document CHEMBL5260802, “Discovery of Novel Allosteric HCV NS5B Inhibitors. 2. Lactam-Containing Thiophene Carboxylates” (ACS Med Chem Lett, 2017).)
